Source: patent US7776875B2, “Spiroindolinone derivatives” (Hoffman-La Roche Inc., priority 2007, dated 2010)

The compounds below were run against recombinant GST-tagged MDM2 / p53-peptide interaction (Homo sapiens, UniProt Q00987) (assay: HTRF assay of inhibition of the p53-MDM2 interaction). Conditions: 0.02% BSA.
Assay type: binding
Description: The ability of the compounds to inhibit the interaction between p53 and MDM2 proteins was measured by an HTRF (homogeneous time-resolved fluorescence) assay in which recombinant GST-tagged MDM2 binds to a peptide that resembles the MDM2-interacting region of p53 (Lane et al.). Binding of GST-MDM2 protein and p53-peptide (biotinylated on its N-terminal end) is registered by the FRET (fluorescence resonance energy transfer) between Europium (Eu)-labeled anti-GST antibody and streptavidin-conjugated Allophycocyanin (APC).
[…] Add 10 uL diluted compounds (1:5 dilution in reaction buffer) to each well, mix by shaking. Add 20 uL biotinylated p53 peptide (180 nM working solution) in reaction buffer to each well and mix on shaker. Incubate at 37° C. for h. Add 20 uL streptavidin-APC and Eu-anti-GST antibody mixture (6 nM Eu-anti-GST and 60 nM streptavidin-APC working solution) in TBS buffer with 0.2% BSA, shake at room temperature for 30 minutes and read using a TRF-capable plate reader at 665 and 615 nm (Victor 5, Perkin ElmerWallac). If not specified, the reagents were purchased from Sigma Chemical Co.

Chain of recombinant GST-tagged MDM2 / p53-peptide interaction (Q00987 whole entry): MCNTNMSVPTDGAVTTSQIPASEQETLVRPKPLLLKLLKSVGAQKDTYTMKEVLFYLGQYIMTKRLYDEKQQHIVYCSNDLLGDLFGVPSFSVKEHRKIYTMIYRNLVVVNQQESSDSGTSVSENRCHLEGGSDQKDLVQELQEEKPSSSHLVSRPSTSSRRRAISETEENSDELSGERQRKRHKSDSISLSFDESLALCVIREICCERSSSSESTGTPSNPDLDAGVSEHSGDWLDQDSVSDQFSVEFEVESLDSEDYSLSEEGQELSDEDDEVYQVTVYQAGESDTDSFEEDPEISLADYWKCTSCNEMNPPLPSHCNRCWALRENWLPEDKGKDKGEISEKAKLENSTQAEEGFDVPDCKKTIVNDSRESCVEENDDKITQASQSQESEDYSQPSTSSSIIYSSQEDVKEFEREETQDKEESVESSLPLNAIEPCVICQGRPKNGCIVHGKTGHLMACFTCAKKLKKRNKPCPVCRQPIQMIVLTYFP

Row | Compound | IC50 [µM]
1 | Cc1ccc(F)cc1[C@@H]1NC(=O)C[C@H](c2cc(Cl)ccc2OC(C)(C)C(=O)NC2CCN(C)CC2)[C@@]12C(=O)Nc1cc(Cl)ccc12 (racemic) [Example 1g, Racemic (2′S,3S,4′R)-6-chloro-4′-{5-chloro-2-[1-methyl-1-(1-methyl-piperidin-4-ylcarbamoyl)-ethoxy]-phenyl}-2′-(5-fluoro-2-methyl-phenyl)spiro[3H-indole-3,3′-piperidine]-2,6′(1H)-dione] | 0.278
2 | Cc1ccc(F)cc1[C@@H]1NC(=O)C[C@H](c2cc(Cl)ccc2OC2(C(=O)NS(=O)(=O)c3ccc(F)cc3)CCC2)[C@@]12C(=O)Nc1cc(Cl)ccc12 (racemic) [Example 11, Racemic (2′S,3S,4′R)-6-chloro-4′-{5-chloro-2-[1-(4-fluoro-benzenesulfonylaminocarbonyl)-cyclobutoxy]-phenyl}-2′-(5-fluoro-2-methyl-phenyl)-spiro[3H-indole-3,3′-piperidine]-2,6′(1H)-dione] | 0.065
3 | Cc1ccc(F)cc1[C@@H]1NC(=O)C[C@H](c2cc(Cl)ccc2OC(C)(C)C(=O)N2CCC(F)(F)CC2)[C@@]12C(=O)Nc1cc(Cl)ccc12 [Example 29b, (2′S,3S,4′R)-6-chloro-4′-{5-chloro-2-[2-(4,4-difluoro-piperidin-1-yl)-1,1-dimethyl-2-oxo-ethoxy]-phenyl}-2′-(5-fluoro-2-methyl-phenyl)spiro[3H-indole-3,3′-piperidine]-2,6′(1H)-dione] | 0.054

The remaining compounds from weak to strong by IC50, led by results:

Row | IC50 [µM] | Compound
4 | 0.327 | Cc1ccc(F)cc1[C@@H]1NC(=O)C[C@H](c2cc(Cl)ccc2OC(C)(C)C(=O)NCCN2CCCCC2)[C@@]12C(=O)Nc1cc(Cl)ccc12 (racemic) [Example 8, Racemic (2′S,3S,4′R)-6-chloro-4′-{5-chloro-2-[1-methyl-1-(2-piperidin-1-yl-ethylcarbamoyl)-ethoxy]-phenyl}-2′-(5-fluoro-2-methyl-phenyl)-spiro[3H-indole-3,3′-piperidine]-2,6′(1H)-dione]
5 | 0.155 | CN(C)C(=O)C(C)(C)Oc1ccc(Cl)cc1[C@H]1CC(=O)N[C@@H](c2cc(Cl)ccc2F)[C@]12C(=O)Nc1cc(Cl)ccc12 (racemic) [Example 34d, (2′R,3S,4′R)-6-chloro-4′-[5-chloro-2-(1-dimethylcarbamoyl-1-methyl-ethoxy)-phenyl]-2′-(2-fluoro-5chloro-phenyl)spiro[3H-indole-3,3′-piperidine]-2,6′(1H)-dione]
